# According to PubChem BioAssay (NCI):
#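 Where inhibition never reached the appropriate level, the endpoint shown equals the highest concentration tested. Otherwise, values were interpolated linearly from a five-concentration, 48-hour dose response in 96-well plates. At the GI50, growth is halved. At the TGI there is no net growth.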
# Legend:
# Experiment in all cases: NCI tumour cell line growth inhibition, 48 h
# NCI-H226 lung = system: NCI-H226 lung
# SK-MEL-5 melanoma = system: SK-MEL-5 melanoma
# MOLT-4 leukemia = system: MOLT-4 leukemia
# DMS 273 small cell lung = system: DMS 273 small cell lung
# LOX IMVI melanoma = system: LOX IMVI melanoma
# UACC-257 melanoma = system: UACC-257 melanoma
# SW-620 colon = system: SW-620 colon
# M19-MEL melanoma = system: M19-MEL melanoma
# U251 CNS = system: U251 CNS
# NCI-H23 lung = system: NCI-H23 lung
# SK-MEL-28 melanoma = system: SK-MEL-28 melanoma
# UACC-62 melanoma = system: UACC-62 melanoma
# NCI-H522 lung = system: NCI-H522 lung
# DLD-1 colon = system: DLD-1 colon
# RXF 393 renal = system: RXF 393 renal
# COLO 205 colon = system: COLO 205 colon
# OVCAR-3 ovarian = system: OVCAR-3 ovarian
# HOP-92 NSCLC = system: HOP-92 NSCLC
# M14 melanoma = system: M14 melanoma
# UO-31 renal = system: UO-31 renal
# LXFL 529 NSCLC = system: LXFL 529 NSCLC
# CCRF-CEM leukemia = system: CCRF-CEM leukemia
# OVCAR-8 ovarian = system: OVCAR-8 ovarian
# SNB-78 CNS = system: SNB-78 CNS
# ACHN renal = system: ACHN renal
# HOP-18 NSCLC = system: HOP-18 NSCLC
# A549 NSCLC = system: A549 NSCLC
# SF-539 CNS = system: SF-539 CNS
# HT29 colon = system: HT29 colon
# HCT-15 colon = system: HCT-15 colon
# NCI-H460 lung = system: NCI-H460 lung
# SN12C renal = system: SN12C renal
# HCT-116 colon = system: HCT-116 colon
# A498 renal = system: A498 renal
# DMS 114 small cell lung = system: DMS 114 small cell lung
# RPMI-8226 leukemia = system: RPMI-8226 leukemia
# 786-0 renal = system: 786-0 renal
# KM12 colon = system: KM12 colon
# IGROV1 ovarian = system: IGROV1 ovarian
# HCC-2998 colon = system: HCC-2998 colon
# K-562 leukemia = system: K-562 leukemia
# TK-10 renal = system: TK-10 renal
# HL-60(TB) leukemia = system: HL-60(TB) leukemia
# SF-295 CNS = system: SF-295 CNS
# MALME-3M melanoma = system: MALME-3M melanoma
# CAKI-1 renal = system: CAKI-1 renal
# SNB-75 CNS = system: SNB-75 CNS
# EKVX NSCLC = system: EKVX NSCLC
# SK-OV-3 ovarian = system: SK-OV-3 ovarian
# XF 498 CNS = system: XF 498 CNS
# KM20L2 colon = system: KM20L2 colon
# SF-268 CNS = system: SF-268 CNS
# HOP-62 NSCLC = system: HOP-62 NSCLC
# SK-MEL-2 melanoma = system: SK-MEL-2 melanoma
# OVCAR-4 ovarian = system: OVCAR-4 ovarian
# OVCAR-5 ovarian = system: OVCAR-5 ovarian
# SR leukemia = system: SR leukemia
# SNB-19 CNS = system: SNB-19 CNS
# MCF7 breast = system: MCF7 breast
# T-47D breast = system: T-47D breast
# NCI/ADR-RES ovarian = system: NCI/ADR-RES ovarian
# MDA-MB-435 = system: MDA-MB-435
# MDA-MB-231 breast = system: MDA-MB-231 breast
# PC-3 prostate = system: PC-3 prostate
# BT-549 breast = system: BT-549 breast
# DU-145 prostate = system: DU-145 prostate
# HS 578T breast = system: HS 578T breast
structure (smiles),measurement,setting,value
O=c1cc[nH]cc1-c1c[nH]ccc1=O,TGI,NCI-H226 lung,> 100 µM
same,TGI,SK-MEL-5 melanoma,> 100 µM
same,TGI,MOLT-4 leukemia,> 100 µM
same,TGI,DMS 273 small cell lung,> 100 µM
same,TGI,LOX IMVI melanoma,> 100 µM
same,TGI,UACC-257 melanoma,> 100 µM
same,TGI,SW-620 colon,> 100 µM
same,TGI,M19-MEL melanoma,> 100 µM
same,TGI,U251 CNS,> 100 µM
same,TGI,NCI-H23 lung,> 100 µM
same,TGI,SK-MEL-28 melanoma,> 100 µM
same,TGI,UACC-62 melanoma,> 100 µM
same,TGI,NCI-H522 lung,> 100 µM
same,TGI,DLD-1 colon,> 100 µM
same,TGI,RXF 393 renal,> 100 µM
same,TGI,COLO 205 colon,> 100 µM
same,TGI,OVCAR-3 ovarian,> 100 µM
same,TGI,HOP-92 NSCLC,> 100 µM
same,TGI,M14 melanoma,> 100 µM
same,TGI,UO-31 renal,> 100 µM
same,TGI,LXFL 529 NSCLC,> 100 µM
same,TGI,CCRF-CEM leukemia,> 100 µM
same,TGI,OVCAR-8 ovarian,> 100 µM
same,TGI,SNB-78 CNS,> 100 µM
same,TGI,ACHN renal,> 100 µM
same,TGI,HOP-18 NSCLC,> 100 µM
same,TGI,A549 NSCLC,> 100 µM
same,TGI,SF-539 CNS,> 100 µM
same,TGI,HT29 colon,> 100 µM
same,TGI,HCT-15 colon,> 100 µM
same,TGI,NCI-H460 lung,> 100 µM
same,TGI,SN12C renal,> 100 µM
same,TGI,HCT-116 colon,> 100 µM
same,TGI,A498 renal,> 100 µM
same,TGI,DMS 114 small cell lung,> 100 µM
same,TGI,RPMI-8226 leukemia,> 100 µM
same,TGI,786-0 renal,> 100 µM
same,TGI,KM12 colon,> 100 µM
same,TGI,IGROV1 ovarian,> 100 µM
same,TGI,HCC-2998 colon,> 100 µM
same,TGI,K-562 leukemia,> 100 µM
same,TGI,TK-10 renal,> 100 µM
same,TGI,HL-60(TB) leukemia,> 100 µM
same,TGI,SF-295 CNS,> 100 µM
same,TGI,MALME-3M melanoma,> 100 µM
same,TGI,CAKI-1 renal,> 100 µM
same,TGI,SNB-75 CNS,> 100 µM
same,TGI,EKVX NSCLC,> 100 µM
same,TGI,SK-OV-3 ovarian,> 100 µM
C/C=C(\NC(=O)C(CCCCN)NC(=O)C(C)NC(=O)C1CSC(C)C(NC(=O)C2CSCC(NC(=O)C(C)NC(=O)C(N)C(C)CC)C(=O)NC(CCCCN)C(=O)NC(Cc3ccccc3)C(=O)NC(CC(C)C)C(=O)N2)C(=O)N2CCCC2C(=O)NCC(=O)N1)C(=O)NCC(=O)NC1CSCC2NC(=O)C(Cc3ccc(O)cc3)NC(=O)C(CSC=CNC2=O)NC(=O)C(CC(N)=O)NC(=O)C(Cc2ccccc2)NC1=O (centres undefined),TGI,DMS 273 small cell lung,> 100 µM
same,TGI,M19-MEL melanoma,> 100 µM
same,TGI,NCI-H23 lung,> 100 µM
same,TGI,DLD-1 colon,> 100 µM
same,TGI,XF 498 CNS,> 100 µM
same,TGI,LXFL 529 NSCLC,> 100 µM
same,TGI,SNB-78 CNS,> 100 µM
same,TGI,DMS 114 small cell lung,> 100 µM
CS(=O)(=O)c1ccc(COP(N)(=O)N(CCCl)CCCl)cc1 (centres undefined),TGI,KM20L2 colon,> 100 µM
same,TGI,NCI-H226 lung,> 100 µM
same,TGI,SK-MEL-5 melanoma,> 100 µM
same,TGI,MOLT-4 leukemia,> 100 µM
same,TGI,DMS 273 small cell lung,> 100 µM
same,TGI,LOX IMVI melanoma,> 100 µM
same,TGI,SF-268 CNS,> 100 µM
same,TGI,UACC-257 melanoma,> 100 µM
same,TGI,SW-620 colon,> 100 µM
same,TGI,M19-MEL melanoma,> 100 µM
same,TGI,U251 CNS,> 100 µM
same,TGI,NCI-H23 lung,> 100 µM
same,TGI,SK-MEL-28 melanoma,> 100 µM
same,TGI,UACC-62 melanoma,> 100 µM
same,TGI,NCI-H522 lung,> 100 µM
same,TGI,DLD-1 colon,> 100 µM
same,TGI,RXF 393 renal,> 100 µM
same,TGI,COLO 205 colon,> 100 µM
same,TGI,OVCAR-3 ovarian,> 100 µM
same,TGI,HOP-92 NSCLC,> 100 µM
same,TGI,M14 melanoma,> 100 µM
same,TGI,UO-31 renal,> 100 µM
same,TGI,XF 498 CNS,> 100 µM
same,TGI,HOP-62 NSCLC,> 100 µM
same,TGI,LXFL 529 NSCLC,> 100 µM
same,TGI,CCRF-CEM leukemia,> 100 µM
same,TGI,OVCAR-8 ovarian,> 100 µM
same,TGI,SK-MEL-2 melanoma,> 100 µM
same,TGI,OVCAR-4 ovarian,> 100 µM
same,TGI,SNB-78 CNS,> 100 µM
same,TGI,ACHN renal,> 100 µM
same,TGI,A549 NSCLC,> 100 µM
same,TGI,SF-539 CNS,> 100 µM
same,TGI,HT29 colon,> 100 µM
same,TGI,HCT-15 colon,> 100 µM
same,TGI,NCI-H460 lung,> 100 µM
same,TGI,SN12C renal,> 100 µM
same,TGI,HCT-116 colon,> 100 µM
same,TGI,A498 renal,> 100 µM
same,TGI,DMS 114 small cell lung,> 100 µM
same,TGI,OVCAR-5 ovarian,> 100 µM
same,TGI,RPMI-8226 leukemia,> 100 µM
same,TGI,786-0 renal,> 100 µM
same,TGI,KM12 colon,> 100 µM
same,TGI,IGROV1 ovarian,> 100 µM
same,TGI,SR leukemia,> 100 µM
same,TGI,HCC-2998 colon,> 100 µM
same,TGI,K-562 leukemia,> 100 µM
same,TGI,TK-10 renal,> 100 µM
same,TGI,SF-295 CNS,> 100 µM
same,TGI,MALME-3M melanoma,> 100 µM
same,TGI,CAKI-1 renal,> 100 µM
same,TGI,SNB-75 CNS,> 100 µM
same,TGI,SK-OV-3 ovarian,> 100 µM
same,TGI,SNB-19 CNS,> 100 µM
CC1=C(CO)C(=O)O[C@@H]([C@@H](C)[C@H]2CC[C@H]3[C@@H]4C[C@H]5O[C@]56[C@@H](O)C=CC(=O)[C@]6(C)[C@H]4CC[C@]23C)C1,GI50,MCF7 breast,0.345 µM
same,TGI,MCF7 breast,2.43 µM
same,TGI,KM20L2 colon,1.47 µM
same,TGI,NCI-H226 lung,2.86 µM
same,TGI,SK-MEL-5 melanoma,2.79 µM
same,TGI,MOLT-4 leukemia,1.72 µM
same,TGI,DMS 273 small cell lung,1.53 µM
same,GI50,LOX IMVI melanoma,0.172 µM
same,TGI,LOX IMVI melanoma,0.547 µM
same,TGI,SF-268 CNS,1.29 µM
same,TGI,UACC-257 melanoma,2.32 µM
same,TGI,SW-620 colon,0.603 µM
same,TGI,M19-MEL melanoma,3.01 µM
same,GI50,T-47D breast,0.5 µM
same,TGI,T-47D breast,2.5 µM
same,GI50,NCI/ADR-RES ovarian,0.821 µM
same,TGI,NCI/ADR-RES ovarian,11.2 µM
same,TGI,U251 CNS,1.52 µM
same,TGI,NCI-H23 lung,0.81 µM
same,TGI,SK-MEL-28 melanoma,2.29 µM
same,TGI,UACC-62 melanoma,2.7 µM
same,TGI,NCI-H522 lung,0.114 µM
same,GI50,MDA-MB-435,0.252 µM
same,TGI,MDA-MB-435,0.976 µM
same,GI50,MDA-MB-231 breast,0.491 µM
same,TGI,MDA-MB-231 breast,1.77 µM
same,TGI,DLD-1 colon,1.03 µM
same,GI50,RXF 393 renal,0.44 µM
same,TGI,RXF 393 renal,1.66 µM
same,TGI,COLO 205 colon,0.81 µM
same,TGI,OVCAR-3 ovarian,0.792 µM
same,TGI,HOP-92 NSCLC,1.46 µM
same,TGI,M14 melanoma,1.06 µM
same,TGI,UO-31 renal,1.31 µM
same,GI50,PC-3 prostate,1.03 µM
same,TGI,PC-3 prostate,2.46 µM
same,TGI,XF 498 CNS,2.82 µM
same,TGI,HOP-62 NSCLC,2.48 µM
same,TGI,LXFL 529 NSCLC,1.26 µM
same,TGI,OVCAR-8 ovarian,1.76 µM
same,TGI,SK-MEL-2 melanoma,1.93 µM
same,TGI,OVCAR-4 ovarian,1.8 µM
same,TGI,ACHN renal,2.02 µM
same,TGI,A549 NSCLC,3.96 µM
same,TGI,SF-539 CNS,2.3 µM
same,TGI,HCT-15 colon,1.94 µM
same,TGI,NCI-H460 lung,5.11 µM
same,GI50,SN12C renal,0.463 µM
same,TGI,SN12C renal,1.78 µM
same,TGI,HCT-116 colon,0.538 µM
same,GI50,A498 renal,0.408 µM
same,TGI,A498 renal,1.53 µM
same,TGI,DMS 114 small cell lung,1.95 µM
same,TGI,OVCAR-5 ovarian,2.64 µM
same,TGI,RPMI-8226 leukemia,37.5 µM
same,TGI,786-0 renal,1.73 µM
same,TGI,KM12 colon,1.82 µM
same,TGI,IGROV1 ovarian,0.544 µM
same,TGI,HCC-2998 colon,1.56 µM
same,TGI,K-562 leukemia,2.5 µM
same,TGI,TK-10 renal,1.99 µM
same,TGI,HL-60(TB) leukemia,0.821 µM
same,TGI,SF-295 CNS,3 µM
same,GI50,BT-549 breast,0.79 µM
same,TGI,BT-549 breast,2.15 µM
same,TGI,MALME-3M melanoma,0.826 µM
same,TGI,CAKI-1 renal,0.773 µM
same,TGI,SNB-75 CNS,3.25 µM
same,GI50,DU-145 prostate,0.294 µM
same,TGI,DU-145 prostate,0.91 µM
same,GI50,HS 578T breast,0.402 µM
same,TGI,HS 578T breast,> 100 µM
same,GI50,EKVX NSCLC,0.434 µM
same,TGI,EKVX NSCLC,1.45 µM
same,GI50,SK-OV-3 ovarian,3.93 µM
same,TGI,SK-OV-3 ovarian,13.8 µM
same,TGI,SNB-19 CNS,6.07 µM
